The test system of one data set is mice. Nature of the data set: Acute toxicity test, oral, mice. In kind it is in vivo. An excerpt: By using mice, ICG5 used in Experiment 15 was orally administrated to the mice for its acute toxicity test. […] Though not so accurate, the value of LD50 of ICG5 was 5 g/kg-mouse weight or higher.
The nature of data set [1]: Amino-carbonyl reaction with polypeptone. In kind it is physicochemical. The following applies: with 5% (w/v) polypeptone, 120° C., blank subtracted. On the procedure:
ICG5 used in Experiment 15 and commercially available polypeptone, commercialized by Nihon Pharmaceutical Co., Ltd., Tokyo, Japan, were dissolved in deionized water to make into an aqueous solution containing […] and 5% (w/v) of polypeptone. As a control, an aqueous solution containing α-CD and polypeptone was prepared in the same manner using α-CD in place of ICG5. Four milliliters each of the solution was put in a glass tube, sealed and then heated at 120° C. for 30, 60, or 90 min. After cooling the solutions in ambient temperature, the degrees of coloring of the solutions were measured to estimate the degree of amino-carbonyl reaction. As a blank test, a solution containing polypeptone only was heated in the same manner. The degree of coloring was defined as an absorbance at 480 nm using a 1 cm-cell after subtracting the absorbance of the blank test.

The values below come from patent publication US8633005B2, “Isocyclomaltooligosaccharide(s), isocyclomaltooligosaccharide-forming enzyme, their preparation and uses” (Hayashibara Co., Ltd., priority 2004, dated 2014).

From the text for pancreas α-amylase: 43, 23-29 (1990), the digestibility of ICM by salivary α-amylase, artificial gastric juice, pancreas amylase, and small intestinal enzymes were investigated using ICG5, used in Experiment 15. […] In Table 18, the digestion (%) means a value calculated by the formula: Digestion (%)=(The amount of reducing saccharides/The amount of the total saccharides)×100 , in respective reaction described above.

On to `OCC1OC2OC3C(CO)OC(OC4C(CO)OC(OC5C(CO)OC(OCC6OC(OC1C(O)C2O)C(O)C(O)C6O)C(O)C5O)C(O)C4O)C(O)C3O` [ICG5, cyclo{→6)-α-D-glucopyranosyl-(1→4)-α-D-glucopyranosyl-(1→4)-α-D-glucopyranosyl-(1→4)-.α-D-glucopyranosyl-(1→4)α-D-glucopyranosyl-(1→}], for which, in the data set with mice (oral, highest possible dose), the Mortality entry is on record as “no mouse died”. Further, the LD50 in the data set with mice (orally administrated, though not so accurate) is on record as at least 5 g/kg-mouse weight. In the data set on pancreas α-amylase, this compound came in with a Digestion of 0%. The Degree of coloring in data set [1] (heating time 0 min) amounted to 0.00 A480 nm; in data set [1] (heating time 30 min), 0.02 A480 nm; in data set [1] (heating time 60 min), 0.02 A480 nm; in data set [1] (heating time 90 min), 0.02 A480 nm.
